Test results reported in US20170275344A1, “POLYPEPTIDES AND USES THEREOF AS A DRUG FOR TREATMENT OF AUTOIMMUNE DISORDERS” (Compugen Ltd., priority 2014, published 2017).
Where “and” joins values, the source holds several entries; their conditions need not be identical. Equal values may be shown once.

Key:
[1] = tested on: healthy human skin transplanted onto beige-SCID mice; test: Humanized psoriasis model: healthy human skin xenotransplants on beige-SCID mice injected with psoriatic patients' PBMCs; assay type: in vivo, mouse; conditions: for Healthy Skin (number of grafts) / Partial Psoriasiform With Tendency Towards Healthy skin (number of grafts) / Psoriasiform Skin (number of affected grafts, histological evaluation) / Total No. of Healthy Grafts (%): 28 days after start of treatment; for Epidermal thickness of grafts, Mean: mean of 9-10 mice, PBS mean 682; for proliferation index (% Ki-67 positive cells) in the xenografted skin: vs vehicle treated group
From the text: In this model, psoriasis is induced in xenotransplants of healthy human skin transplanted onto beige severe combined immunodeficiency (SCID) mice followed by intradermal (i.d.) injection of IL-2 enriched Peripheral Blood Mononuclear Cells (PBMCs) isolated from blood of psoriasis patients (Nickoloff, 1995; Wrone-Smith, 1996 Gilhar et al., 2002, 2006, 2011). The activity of these compounds was compared to that of Enbrel, a TNF inhibitor which is an approved biological drug for treatment of psoriasis. As a control for model robustness, we used dexamethasone, a steroid with suppressive effects on inflammatory cytokines and chemokines such as TNF-alpha and interferon-gamma which cause severe psoriasis. All treatments were administered intradermally, except for dexamethasone which was given topically.
Study Protocol: A) Healthy human skin pieces with a width of 0.4 mm and surface area of 1.5×1.5 cm were provided from residual skin of routine plastic surgery procedures from the Plastic Surgery Department of the Rambam Medical Center, Israel. In addition, 20 mL blood samples were taken from psoriatic patients. B) Seventy (70) beige-severe combined immunodeficient mice (SCID) (weight˜20-25 g) were included in this study. Normal healthy human donor skin was transplanted onto the beige-SCID mice as previously described (Nickoloff et al., 1995; Wrone-Smith, 1996; Gilhar et al., 2002, 2006, 2011; Kalish et al., 2009) and the mice were divided into 7 groups. C) Peripheral Blood Mononuclear Cells (PBMCs) isolated from psoriatic patients' blood were cultured in the presence of IL-2 [Prospec, 100 U/mL of RPMI 1640 media, 10% human AB serum (Sigma, St. Louis, Mo.), 1% glutamine, 1% antibiotics (media components; Biological Industries, Kibbutz Beit Haemeck, Israel)] for 14 days, as previously described (Gilhar et al, 2002). D) Four weeks following engraftment, each mouse was injected intra-dermally (i.d.) into the grafted skin lesion, with 1×10^7 activated allogeneic enriched PBMCs from psoriatic patients (FIG. 20). Cells from different psoriasis patients were equally distributed between treatment groups so that each patient is represented in each treatment group. E) On the day of PBMCs injection into the skin grafts, mice were divided randomly into treatment groups (n=9-10 mice per group) and administration of all drugs started (FIG. 20). All tested compounds including the vehicle were given intradermally (intralesional), three times a week, except for dexamethasone which was given topically for 14 consecutive days (Table 3).
F) Twenty eight days after starting the injections and treatment, skin was harvested (FIG. 20). Grafts were analyzed for the following psoriatic parameters by histology: epidermal thickening (acanthosis), suprapapillary epidermal thinning (papillomatosis), hyperkeratosis, parakeratosis, orthokeratosis, agranulosis-hypogranulosis, appearance of neutrophils in the upper spinous layer or in the corneal cell layer—Munro microabscess, regular elongation of rete ridges, angiogenesis, edema and dilated tortuous blood vessels in the dermal papilla and mononuclear cell infiltrate in the papillary dermis. Epidermal thickness was measured as detailed below, and HLA-DR, ICAM-1, Ki-67 and immune infiltrates (anti-CD3 stain) were evaluated by immunohistochemistry (IHC).
The entire skin graft was excised and placed in 10% formal saline overnight. Then, the specimens were place in 70% ethanol and were embedded according to the standard H&E protocol. Histological assessment of the skin grafts was performed by light microscopy and evaluated by two blinded observers [the second observer evaluated random slides (about 25% of all slides) to compare the data obtained by the first observer. […] Epidermal thickness was determined with an ocular micrometer at a minimum of 50 points along the epidermis selected to represent points of maximal and minimal thickness.
Representative grafts were allocated for IHC analysis. […]

PBMCs from MS patients = test: MS patients' PBMCs: proliferation and cytokine secretion; assay type: cell-based, human
Method: PBMCs were taken from eight MS patients with diagnosed relapsing-remitting disease who have experienced a relapse 1-2 days prior to blood drawing.
PBMCs were plated in a flat-bottom 96-well plate at 1e6 cells/well. The cells were cultured in the presence of anti-CD3 (0.5 ug/ml), MS-specific peptide MBP85-96 (10 ug/ml), or tetanus toxoid peptide TT830-843 (10 ug/ml). C1ORF32 ECD-Fc (SEQ ID NO: 43) or Control Ig were added to the cuture at the indicated concentrations. Two replicate plates were set to study for the effect of C1ORF32 ECD-Fc (SEQ ID NO: 43) on proliferation and on pro-inflammatory and anti-inflammatory cytokines secretion. To test for proliferation, the cultures were pulsed on day +1 of culture with 1 uCi of tritiated thymidine and then harvested 3 days later on day +4 of culture. For cytokine analysis, super natantes from a replicate cultures were collected on day +4 of culture and tested using Millipore multiplex assay.

[2] = tested on: co-cultures of TcK and macrophages; test: TcK : macrophage co-culture, cytokine secretion; assay type: cell-based, human
Method: • Purified CD4+ cells (2×10^6 cells/ml) are activated for 6 days in complete medium containing IL-15 (100 ng/ml), IL-6 (100 ng/ml) and TNFα (25 ng/ml).
After 6 days in culture, T cells are washed 3 times in complete medium and counted
TcKs are added to macrophage culture following removal of existing culture media at […] (5×10^4 cells/well/CD4+ T cells plus 2×10^5 cells/well CD14^+ Macrophages). C1ORF32 ECD-Fc (SEQ ID NO:43) or Control IgG are added at 1, 3, 10, 30 μg/ml. For additional controls co-cultures are added with vehicle or with medium only (Wennink et al., 2012).
After 24 hrs of culture, cytokines (IL-10, IFN-α, IL-6, IL-12, CCL5, IL-13, IL-15, IL-17, CCL3, GM-CSF, IFNγ, TNFα, IL-1RA, IL-7, IL-1B, eotaxin, IL-2 IL-4 and IL-2R) are analyzed using ELISA and/or Luminex
Co-culture of TcK with autologeuos ex-vivo differentiated macrophages mimics one of the crucial pathways mediating synovial macrophage activation in RA thus serving as a translational tool for evaluating the therapeutic potential of drug candidates. Therefore the effect of C1ORF32 ECD-Fc (SEQ ID NO:43) was tested on the secretion of a range of pro-inflammatory and anti-inflammatory cytokines in such co-cultures. Two studies were carried out, one in which buffy coats from healthy volunteers was used and another study in which the responses of RA patients blood cells responses were compared to that of healthy voluntiers in which blood was used rather than buffy coats.

[3] = PBMCs activated ex-vivo with MBP85-96
[4] = healthy volunteers, 24 hrs co-culture

Molecule | Healthy Skin (number of grafts) [1] | Psoriasiform Skin (number of affected grafts, histological evaluation) [1] | Total No. of Healthy Grafts (%) [1] | Epidermal thickness of graft ([1]; Source of graft (Patient) A) [μm] | Epidermal thickness of graft ([1]; Source of graft (Patient) B) [μm] | Epidermal thickness of graft ([1]; Source of graft (Patient) C) [μm] | Epidermal thickness of graft ([1]; Source of graft (Patient) D) [μm] | Epidermal thickness of graft ([1]; Source of graft (Patient) E) [μm] | Epidermal thickness of graft ([1]; Source of graft (Patient) G1) [μm] | Epidermal thickness of graft ([1]; Source of graft (Patient) H) [μm] | Epidermal thickness of graft ([1]; Source of graft (Patient) K) [μm] | Epidermal thickness of grafts, Mean [1] [μm] | further results
C[C@@H]1C[C@H]2[C@@H]3CCC4=CC(=O)C=C[C@]4(C)[C@@]3(F)[C@@H](O)C[C@]2(C)[C@@]1(O)C(=O)CO [dexamethasone] | 7/10 | 2 and 2/10 | 70% | 359 | 596 | 183 | 377 | 391 | 266 | 262 | 289 | 315 | Partial Psoriasiform With Tendency Towards Healthy skin (number of grafts) [1]: 1; Partial Psoriasiform With Tendency Towards Healthy skin (number of grafts) ([1]; listed as Dexa): 1/10; Psoriasiform Skin (number of affected grafts, histological evaluation) ([1]; listed as Dexa): 2/10; Epidermal thickness of graft ([1]; Source of graft (Patient)): 204 μm; Epidermal thickness of graft ([1]; Source of graft (Patient) P): 232 μm
C1ORF32 ECD-Fc (SEQ ID NO: 43): fusion protein of human C1ORF32 ECD fused to human immunoglobulin Fc (human-human fusion protein) | 5/9 | 4/9 | 55.5% and 55% | 904 | 397 | 603 | 441 | 335 | 598 | 253 | 268 | 508 | IFNg, IL-17, TNFa secretion (PBMCs from MS patients; [3]): inhibition; IL-4, IL-10, TGFβ and IL-6 secretion (PBMCs from MS patients; [3]): increase; cell proliferation (PBMCs from MS patients; [3]): inhibition of cells proliferation; proliferation, or secretion of IFNg, IL-17, and TNFa (PBMCs from MS patients; absence of activation): no effect; IL-10, IL-4, TGFβ and IL-6 (PBMCs from MS patients; absence of activation, in some of the donors): elevation; TNFa secretion ([2]; RA patients' (n=2) and healthy volunteers blood (n=1) samples): marked inhibition; IL-10, IL-15, IFNa, IL-7 secretion levels [2, 4]: No effect; secretion of IFNg, IL-1RA, IL-17, IL-12, IL-13, IL-6 and IL-2R [2, 4]: to a lesser extent also downregulated; secretion of TNFa, CCL5, CCL3, GM-CSF, and IL-5 [2, 4]: inhibited; expression of HLA-DR, ICAM-1 and Ki-67 (IHC) ([1]; IHC of representative grafts): decreased expression; infiltration of T cells (CD3 positive cells) ([1]; IHC, vs PBS treated group): decreased infiltration of T cells; proliferation index (% Ki-67 positive cells) in the xenografted skin ([1]; IHC): trend towards decrease in proliferation index; proliferation index (% Ki-67 positive cells) in the xenografted skin ([1]; IHC, listed as C1ORF ECD-Fc (SEQ ID NO:43)): most pronounced reduction; Epidermal thickness of graft ([1]; Source of graft (Patient) G2): 775 μm; epidermal thickness compared with the vehicle-treated group ([1]; one-tailed t-Test, listed as C1ORF ECD-Fc (SEQ ID NO:43)): significant reduction in epidermal thickness
